The values that follow come from US20220056075A1, “METHOD FOR TREATING OPIOID USE DISORDER” (THE ADMINISTRATORS OF THE TULANE EDUCATIONAL FUND, priority 2019, published 2022).

For one series, the system named is glia. The settings on record: conditions where morphine activates glia; cited from earlier work.
The test system of series [1] is rats trained to discriminate morphine from vehicle. Description: Drug discrimination (DD), morphine-trained rats. The settings on record: for Response rate impairment %: highest dose tested (5.6 mg/Kg), percent of vehicle responding. As for the experimental part:
Drug Discrimination (DD): Rats were food deprived to approximately 85% of the weight of free feeding cohorts to establish operant responding for 45 mg food pellets (Bioserve, Frenchtown, N.J.) in standard operant chambers (MED Associates, St. Albans, Vt.). Rats were fed 10-20 g of standard food after daily DD sessions, and ˜3× the daily amount on weekends to maintain appropriate weight. DD consisted of 3 phases (Krivsky et al., 2006). In phase 1, rats were trained to lever press for food at a fixed ratio (FR) level 1 (i.e., 1 lever press=1 food pellet) using 2 levers with stimulus lights located above each lever and a food hopper between the levers during 120 min sessions. Responding on either lever extinguished the light and delivered a food pellet. […] Once >20 pellets were earned at FR9, sessions were shortened to 20 min and response requirements were set at FR10 and the left or right lever reinforced responding on alternate days. Once >20 pellets were earned on each lever at FR10, rats started phase 2 of DD training.
Only responses on the correct lever were reinforced and responses on the incorrect lever reset the response requirement on the correct lever. Criteria to move to phase 3 were as follows: >20 pellets per session, >90% injection appropriate lever responding, and <9 responses on the incorrect lever before the first food pellet reward.
Two paradigms were utilized to generate substitution curves: cumulative within-session and bolus between-session injections.
During substitution tests, both levers actively delivered food at an FR10 schedule. […] Doses were increased in ¼ log increments, with injections every 20 min followed 15 minutes later by DD sessions lasting 5 min each. […] The advantage of this procedure was that an entire dose-response was generated in one session.
Statistics: PRISM software (GraphPad, San Diego, Calif.) was used for one-way analysis of variance (ANOVA) with Newman-Keuls post-hoc comparisons to compare CPP groups, locomotor effects, hot plate, and DD response rates. Locomotor data recorded during the conditioning sessions were analyzed by 2-way ANOVA (session x drug) and data from the first session were subtracted from the final session to assess locomotor enhancement. Experimenters were blinded to treatment groups.

A further series deals with Male Sprague-Dawley rats. Kind of series: Reinstatement of morphine-induced conditioned place preference. The settings on record: priming dose 1.8 mg/Kg, 20 min, vs baseline. As for the experimental part: Male Sprague-Dawley rats were exposed to a conditioned place preference (CPP) apparatus for two sessions to determine baseline (BL) preference for 2 distinct, unbiased chambers. […] The animals then underwent extinction procedures consisting of confinement for 45 min in the previously drug- and vehicle-paired chambers for 7 days.

For a further series, the system named is rats. Particulars: cited from earlier work.
Series [2] concerns dopamine (DA) neurons in the posterior VTA. Description: VTA dopamine cell soma morphology (TH staining, STEREO INVESTIGATOR). Particulars: 5 consecutive daily i.v. injections; morphine effect at 5.6 mg/Kg. The series is classed as in vivo, rat. As for the experimental part:
DA morphology analysis: Fifteen min following the final CPP test session, rats were anesthetized with a mixture of ketamine/xylazine (85/10 mg/Kg, i.p., respectively) and perfused intracardially with 200 mL of 0.1 mol/L phosphate buffered saline (PBS) immediately followed by 300 mL of 4% paraformaldehyde in 0.1 mol/L PBS (pH=7.4). Brains were removed and post-fixed at 4° C. in the same fixative for 18 h. After post-fixation, brains were incubated in 30% sucrose at 4° C. for 2 days and sectioned coronally on a cryostat at 40 μm at the level of the posterior VTA (Spiga et al., 2003; Chu et al., 2008). After 2 consecutive washes in PBS, sections were blocked with 5% normal donkey serum (NDS) for 1 h, and incubated with the primary antibody anti-tyrosine-hydroxylase (anti-TH, 1: 3000 Cell Signaling Technology, Danvers, Mass.) overnight at 4° C. Slices were washed twice in PBS, re-blocked for 1 h, and incubated with the secondary antibody ALEXA594 (Life Technologies, Carlsbad, Calif.), for 2 h. Sections were washed, mounted on slides with PROLONG GOLD (Life Technologies), and stored at 4° C. Posterior VTA sections were verified according to the atlas of Paxinos and Watson (2007). Images of the parabrachial pigmented area (PBP) and the paranigral area (PN) subregions of the posterior VTA were captured in z-stacks (1 μm) with at least 5 tissue slices per rat and 5-6 rats per drug group. STEREO INVESTIGATOR software (MBF Bioscience; Williston, Va.) was used to quantify soma size using the optical fractionator probe to survey a sample of neurons in each z-stack while the nucleator probe was used to measure the cross-sectional area and volume of each cell soma. The optical fractionator probe was used to quantify the number of cells in a particular section of tissue through systematic random sampling. Between 12 and 16 regions were surveyed per z-stack. While the optical fractionator probe utilized stereological techniques to select a random sample to be analyzed, the nucleator probe measured the cross-sectional area of each neuron. Therefore, the simultaneous use of these probes systematically assessed neurons in the PBP and PN regions of the VTA in each subject, and provided morphological data for these cells including surface area (μm^2) and volume (μm^3). Cell somas were eligible to be quantified if they were located within the counting frame and/or if the soma touched either of the nucleator frame's green borders. Neurons were ineligible if located outside the counting frame and/or if their soma touched the frame's red borders. After determining this optimum depth, the center of the soma was located and analyzed by the nucleator probe. To eliminate bias associated with tissue orientation, nucleator rays were randomly arranged between quantifications. […]

The conditions of series [3]: cumulative doses producing maximum antinociceptive effects; cited from earlier work.
In a further series the test system is male and female mice. Particulars: acute, equi-antinociceptive doses.

Where “and” joins values, the source holds several entries; their conditions need not be identical. Equal entries are not always repeated. Entries after “also recorded” stand apart in the source; their conditions may differ.

For `NC(=O)CNC(=O)[C@@H]1CCC(=O)NCCCC[C@@H](NC(=O)[C@@H](N)Cc2ccc(O)cc2)C(=O)N[C@@H](Cc2c[nH]c3ccccc23)C(=O)N[C@@H](Cc2ccccc2)C(=O)N1` [ZH853, Tyr-c[D-Lys-Trp-Phe-Glu]-Gly-NH2], in the series with glia, the glial activation result is listed as “lack of glial activation”. The “Response rate impairment %” value in series [1] (bolus injections) is 15% and 15.1%. Moreover, the “Response rate impairment %” value in series [1] (cumulative injections) is 0.8%. Further, in series [1] (i.v., compared to vehicle), the “response rates for food during test sessions” value is on record as “not impaired; also recorded: lowest among all compounds tested”. In the series with Male Sprague-Dawley rats, the “reinstatement of morphine CPP after extinction” value is on record as “scores not significantly different from baseline”. In addition, the “hourly SA intake (peak)” value with rats (12-hour SA sessions, 3 mg/Kg/infusion) is 1.1 mg/kg/h. Besides, in the series on rats (rat, in vivo), the “reinforcing effects in SA/CPP procedures” value was “did not produce reinforcing effects in SA/CPP procedures”. Also, in series [2], the “surface area of TH-positive somas in pVTA” value is “did not alter” and the “volume of TH-positive somas in pVTA” value was “did not alter”. For the same compound, the “motor impairment on the Rotarod” value in series [3] is listed as “lack of motor impairment”. Moreover, the “distance traveled (AUC)” value in the series with male and female mice is given as “did not affect the distance traveled”.
